The first test concerns Acinetobacter baumannii ATCC17961. Put plainly: 90% Growth Inhibitory Concentration (IC90) determination, antimicrobial susceptibility testing. In kind it is cell-based. As to conditions: Acinetobacter baumannii ATCC17961; Iso-Sensitest broth; growth by optical density at 600 nm over 16h; concentration inhibiting 90% of the growth; read-out: ATCC 17961 IC90. A digest of the protocol: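 Broth microdilution in Iso-Sensitest medium, compounds twofold diluted (e.g. 50–0.097 μM final), inoculum ~5×10^(5) CFU/ml, 35±2° C. OD600 was read every 20 min over 16 h. IC90 was derived from growth inhibition during logarithmic growth.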
Take `Cn1c(-c2cn(-c3ccc(N)cn3)nc2C(F)(F)F)cnc1C(=O)Nc1ccc(C(=O)N[C@H]2C[C@@H](NC(=O)[C@@H]3C[C@@H](O)CN3)C2)c(Cl)c1` (stereo in doubt) [Example Z42, 5-[1-(5-amino-2-pyridyl)-3-(trifluoromethyl)pyrazol-4-yl]-N-[3-chloro-4-[cis-[3-[[(2S,4R)-4-hydroxyprolyl]amino]cyclobutyl]carbamoyl]phenyl]-1-methyl-imidazole-2-carboxamide]: the concentration for an effect of 90% (IC90) (commonly the concentration at which the effect reaches the 90% level) is 630 nM.

Still in this test, the particulars now being: Acinetobacter baumannii, ATCC17961, 16 h, Acinetobacter baumannii ATCC17961; Iso-Sensitest broth; growth by optical density at 600 nm over 16h; concentration inhibiting 90% of the growth; read-out: ATCC 17961 IC90.
Take `Cn1c(-c2cn(-c3ccc(N)cn3)nc2C(F)(F)F)cnc1C(=O)Nc1ccc(C(=O)N2CCNC3(CC3)C2)c(Cl)c1` [Example Z51, 5-[1-(5-amino-2-pyridyl)-3-(trifluoromethyl)pyrazol-4-yl]-N-[3-chloro-4-(4,7-diazaspiro[2.5]octane-7-carbonyl)phenyl]-1-methyl-imidazole-2-carboxamide]: the IC90 is 990 nM. The same measure, in the same setting: the same measure for `Cn1c(-c2cn(-c3cc(Cl)c(N)cn3)nc2C(F)(F)F)cnc1C(=O)Nc1ccc(C(=O)N2CCN(C(=O)C3CCNCC3)CC2)c(Cl)c1` [Example Z80, 5-[1-(5-amino-4-chloro-2-pyridyl)-3-(trifluoromethyl)pyrazol-4-yl]-N-[3-chloro-4-[4-(piperidine-4-carbonyl)piperazine-1-carbonyl]phenyl]-1-methyl-imidazole-2-carboxamide]: 380 nM; for `Cn1c(-c2cn(-c3ccc(N)cn3)nc2C(F)(F)F)cnc1C(=O)Nc1ccc(C(=O)N2CC[C@@H](CN)C2)c(Cl)c1` [Example Z7, N-[4-[(3S)-3-(aminomethyl)pyrrolidine-1-carbonyl]-3-chloro-phenyl]-5-[1-(5-amino-2-pyridyl)-3-(trifluoromethyl)pyrazol-4-yl]-1-methyl-imidazole-2-carboxamide]: 250 nM.

In the case of `Cn1c(-c2cn(-c3nccc(N)n3)nc2C(F)(F)F)cnc1C(=O)Nc1ccc(C(=O)N2CCN(C(=O)C3CCNCC3)CC2)c(Cl)c1` [Example A15, 5-[1-(4-aminopyrimidin-2-yl)-3-(trifluoromethyl)pyrazol-4-yl]-N-[3-chloro-4-[4-(piperidine-4-carbonyl)piperazine-1-carbonyl]phenyl]-1-methyl-imidazole-2-carboxamide], the IC90 turned out to be 590 nM. The same measure, in the same setting: the value for `Cn1c(-c2cn(-c3ccc(Cl)nc3)nc2C(F)(F)F)cnc1C(=O)Nc1ccc(C(=O)N2CCN(C(=O)[C@@H]3C[C@@H](O)CN3)CC2)c(Cl)c1` [Example Z30, N-[3-chloro-4-[4-[(2S,4R)-4-hydroxyprolyl]piperazine-1-carbonyl]phenyl]-5-[1-(6-chloro-3-pyridyl)-3-(trifluoromethyl)pyrazol-4-yl]-1-methyl-imidazole-2-carboxamide] was 780 nM; that for `C[C@H]1NCCN(C(=O)c2ccc(NC(=O)c3ncc(-c4cn(-c5ccc(N)cn5)nc4C(F)(F)F)n3C)cc2Cl)[C@H]1C` [Example Z68, 5-[1-(5-amino-2-pyridyl)-3-(trifluoromethyl)pyrazol-4-yl]-N-[3-chloro-4-[(2S,3R)-2,3-dimethylpiperazine-1-carbonyl]phenyl]-1-methyl-imidazole-2-carboxamide] was 650 nM; that for `Cn1c(-c2cn(-c3ccc(NCCC(N)=O)cn3)nc2C(F)(F)F)cnc1C(=O)Nc1ccc(C(=O)N2CCN(C(=O)C3CCNCC3)CC2)c(Cl)c1` [Example C3, 5-[1-[5-[(3-amino-3-oxo-propyl)amino]-2-pyridyl]-3-(trifluoromethyl)pyrazol-4-yl]-N-[3-chloro-4-[4-(piperidine-4-carbonyl)piperazine-1-carbonyl]phenyl]-1-methyl-imidazole-2-carboxamide] was 1200 nM. In the case of `COCCn1cnc(-n2cc(-c3cnc(C(=O)Nc4ccc(C(=O)N5CCN(C(=O)C6CCNCC6)CC5)c(Cl)c4)n3C)c(C(F)(F)F)n2)c1` [Example E3, N-[3-chloro-4-[4-(piperidine-4-carbonyl)piperazine-1-carbonyl]phenyl]-5-[1-[1-(2-methoxyethyl)imidazol-4-yl]-3-(trifluoromethyl)pyrazol-4-yl]-1-methyl-imidazole-2-carboxamide], the IC90 is 500 nM. On to `COc1ccnc(-n2cc(-c3cnc(C(=O)Nc4ccc(C(=O)N5CCN(C(=O)C6CCNCC6)CC5)c(Cl)c4)n3C)c(C(F)(F)F)n2)n1` [Example C5, N-[3-chloro-4-[4-(piperidine-4-carbonyl)piperazine-1-carbonyl]phenyl]-5-[1-(4-methoxypyrimidin-2-yl)-3-(trifluoromethyl)pyrazol-4-yl]-1-methyl-imidazole-2-carboxamide], for which the IC90 worked out at 930 nM. As for `Cn1c(-c2cn(-c3ccc(N)cn3)nc2C(F)(F)F)cnc1C(=O)Nc1ccc(C(=O)N[C@H]2CC[C@H](NC(=O)[C@@H]3C[C@@H](O)CN3)C2)c(Cl)c1` [Example Z48, 5-[1-(5-amino-2-pyridyl)-3-(trifluoromethyl)pyrazol-4-yl]-N-[3-chloro-4-[[(1S,3S)-3-[[(2S,4R)-4-hydroxyprolyl]amino]cyclopentyl]carbamoyl]phenyl]-1-methyl-imidazole-2-carboxamide], the 90% effect concentration (IC90) turned out to be 510 nM. Still for that read-out and setting: the value for `Cn1c(-c2cn(-c3ccc(N)cn3)nc2C(F)(F)F)cnc1C(=O)Nc1ccc(C(=O)NCCOCCN)c(Cl)c1` [Example Z21, N-[4-[2-(2-aminoethoxy)ethylcarbamoyl]-3-chloro-phenyl]-5-[1-(5-amino-2-pyridyl)-3-(trifluoromethyl)pyrazol-4-yl]-1-methyl-imidazole-2-carboxamide] was 670 nM; that for `Cn1c(-c2cn(-c3ccc(N)cn3)nc2C(F)(F)F)cnc1C(=O)Nc1ccc(C(=O)NC2(CN)CC2)c(Cl)c1` [Example Z6, N-[4-[[1-(aminomethyl)cyclopropyl]carbamoyl]-3-chloro-phenyl]-5-[1-(5-amino-2-pyridyl)-3-(trifluoromethyl)pyrazol-4-yl]-1-methyl-imidazole-2-carboxamide] was 930 nM. In the case of `Cn1c(-c2cn(-c3ccc(N)cn3)nc2C(F)(F)F)cnc1C(=O)Nc1ccc(C(=O)N2CC[C@H](CNC(=O)[C@@H]3C[C@@H](O)CN3)C2)c(Cl)c1` [Example Z44, 5-[1-(5-amino-2-pyridyl)-3-(trifluoromethyl)pyrazol-4-yl]-N-[3-chloro-4-[(3R)-3-[[[(2S,4R)-4-hydroxyprolyl]amino]methyl]pyrrolidine-1-carbonyl]phenyl]-1-methyl-imidazole-2-carboxamide], the 90% effect concentration (IC90) turned out to be 810 nM.

Turning to `Cn1c(-c2cn(-c3ccc(N)cn3)nc2C(F)(F)F)cnc1C(=O)Nc1ccc(C(=O)N2CCC(CN)CC2)c(Cl)c1` [Example Z14, N-[4-[4-(aminomethyl)piperidine-1-carbonyl]-3-chloro-phenyl]-5-[1-(5-amino-2-pyridyl)-3-(trifluoromethyl)pyrazol-4-yl]-1-methyl-imidazole-2-carboxamide], the 90% effect concentration (IC90) came to 850 nM. On the same count and under the same terms, the value for `COCC1CN(C(=O)c2ccc(NC(=O)c3ncc(-c4cn(-c5ccc(N)cn5)nc4C(F)(F)F)n3C)cc2Cl)CCN1` (stereo not drawn) [Example Z69, 5-[1-(5-amino-2-pyridyl)-3-(trifluoromethyl)pyrazol-4-yl]-N-[3-chloro-4-[3-(methoxymethyl)piperazine-1-carbonyl]phenyl]-1-methyl-imidazole-2-carboxamide] was 1310 nM.

For `COc1nn(-c2ccc(N)cn2)cc1-c1cnc(C(=O)Nc2ccc(C(=O)N3CCN(C(=O)C4CCN(C)CC4)CC3)c(Cl)c2)n1C` [Example C10, 5-[1-(5-amino-2-pyridyl)-3-methoxy-pyrazol-4-yl]-N-[3-chloro-4-[4-(1-methylpiperidine-4-carbonyl)piperazine-1-carbonyl]phenyl]-1-methyl-imidazole-2-carboxamide], the IC90 stood at 7000 nM. Still for that read-out and setting: the same measure for `CNc1ccc(-n2cc(-c3cnc(C(=O)Nc4ccc(C(=O)N5CCN(C(=O)[C@H]6NCC[C@@H]6O)CC5)c(Cl)c4)n3C)c(C(F)(F)F)n2)nc1` [Example D4, N-[3-chloro-4-[4-[(2S,3S)-3-hydroxypyrrolidine-2-carbonyl]piperazine-1-carbonyl]phenyl]-1-methyl-5-[1-[5-(methylamino)-2-pyridyl]-3-(trifluoromethyl)pyrazol-4-yl]imidazole-2-carboxamide]: 520 nM; for `CNc1ccnc(-n2cc(-c3cnc(C(=O)Nc4ccc(C(=O)N5CCN(C(=O)C6CCNCC6)CC5)c(Cl)c4)n3C)c(C(F)(F)F)n2)n1` [Example A16, N-[3-chloro-4-[4-(piperidine-4-carbonyl)piperazine-1-carbonyl]phenyl]-1-methyl-5-[1-[4-(methylamino)pyrimidin-2-yl]-3-(trifluoromethyl)pyrazol-4-yl]imidazole-2-carboxamide]: 680 nM. The same measure, in the same setting: the value for `Cn1c(-c2cn(-c3ccc(N)cn3)nc2C(F)(F)F)cnc1C(=O)Nc1ccc(C(=O)N2CCC(NC(=O)[C@@H]3C[C@@H](O)CN3)CC2)c(Cl)c1` [Example Z24, 5-[1-(5-amino-2-pyridyl)-3-(trifluoromethyl)pyrazol-4-yl]-N-[3-chloro-4-[4-[[(2S,4R)-4-hydroxyprolyl]amino]piperidine-1-carbonyl]phenyl]-1-methyl-imidazole-2-carboxamide] was 460 nM. As to `Cc1nc(-n2cc(-c3cnc(C(=O)Nc4ccc(C(=O)N5CCN(C(=O)C6CCNCC6)CC5)c(Cl)c4)n3C)c(C(F)(F)F)n2)ccc1N` [Example Z86, 5-[1-(5-amino-6-methylpyridin-2-yl)-3-(trifluoromethyl)pyrazol-4-yl]-N-[3-chloro-4-[4-(piperidine-4-carbonyl)piperazine-1-carbonyl]phenyl]-1-methylimidazole-2-carboxamide], the IC90 was 290 nM.
